Source: a melting point compilation (Tetko et al.; mined from patent text by program, amines drawn as free bases though some values may be those of a salt)

| Structure (SMILES) | melting point |
| --- | --- |
| N#CCCNC(=O)c1cccc(-c2cccc3cc(Cc4cccc(C(F)(F)F)c4)oc23)c1 | 154 to 155 °C |
| CNc1nc(C)c(-c2ccnc(Nc3ccc(CCO)cc3)n2)s1 | 216 to 218 °C |
| COc1cccc(NC(=O)NCC(=O)N(CC(=O)N2CCCC(C)(C)C2)c2ccccc2)c1 | 200 °C |
| Cc1occ(S(=O)(=O)NC(C)(C)C)c1C | 95 to 96 °C |
| Cc1cccc(-c2c(C(N)=O)n(C)c(=O)c3ncccc23)c1 | > 310 °C |
| O=C1COc2ccc(-c3cnn(CC(F)(F)F)c3-c3ccc(F)cc3)cc2N1 | 227 °C |
| O=C1CN=C(c2ccccc2Br)c2cc(F)ccc2N1 | 194 to 196 °C |
| Cc1nc(-c2ccc(C(F)(F)F)cc2)sc1C(=O)Nc1cc(Cl)ccc1-c1nnn[nH]1 | 325 to 337 °C |
| CNC1=NN(C(=O)C(C)(C)C)C(C)S1 (configuration not stated) | 102 to 103 °C |
| N[C@H]1CC[C@H](Nc2ccnc3cc(C(F)(F)F)ccc23)CC1 | 186 °C |
| Clc1nc(-c2ccncc2)cs1 | 124 to 125 °C |
| Nc1cccc2c1COC2 | 85 to 89 °C |
| CC(O)=C(C#N)C(=O)c1ccc(F)cc1 | 65 to 67 °C |
| Nc1ccc(-c2nc3ccc(Br)cc3s2)cc1 | 219 to 221 °C |
| Cc1c[nH]c(=O)c(NC(=O)c2ccccc2F)c1 | 230 to 232 °C |
| CCNC(=O)c1c(Cl)cccc1OC(C)(C)C | 126 to 127 °C |
| CCNC(=O)n1nc(Oc2c(Cl)cc(C(F)(F)F)cc2Cl)c(CC)c1C | 120 to 123 °C |
| O=C(NC1CCCC1)c1ccccc1C(c1ccc(O)cc1)c1ccc(O)cc1 | 148 to 150 °C |
| COc1cc(CC(=O)O)ccc1OCc1nc(-c2ccco2)oc1C | 162 to 164 °C |
| COc1ccccc1C1C(C#N)=C(C(C)C)Nc2n[nH]cc21 (configuration not stated) | > 250 °C |
| O=C(N[C@H]1CC[C@H](CCN2CCN(c3nccc4c3OCC4)CC2)CC1)c1ccc(Cl)cc1 | 252 °C |
| O=C1NCC(Cc2ccccc2)O1 (configuration not stated) | 104 to 105 °C |
| CCOC(=O)c1sc(Nc2ccccc2)c2c1CCc1cn[nH]c1-2 | 202 to 203 °C |
| CCC(C)(CC)C(=O)O[C@H]1C[C@H](O)C=C2C=C[C@H](C)[C@H](CC[C@@H]3C[C@@H](O)CC(=O)O3)[C@H]21 | 152 to 154 °C |

| Structure (SMILES) | melting point |
| --- | --- |
| CCCC(=O)c1ccc(OC)c(Cl)c1Cl | 42 to 44 °C |
| CCCCC[C@H]1CC[C@H](c2ncc(-c3ccc(CCCC)cc3)cn2)CC1 | 87 °C |
| Cc1ccc(C(=O)NC(C)(C(N)=O)C(C)C)cc1 (configuration not stated) | 145 to 152 °C |
| CNC(=O)c1ccccc1Nc1nc(Nc2cc3c(cc2OC)N(C)C(=O)OCC3)ncc1Cl | 235 to 237 °C |
| O=C(NCC(=O)N(c1ccccc1)c1ccccc1)c1ccc2ccccc2c1 | 205 °C |
| CCOc1ccc(C(=O)CCC(=O)Nc2sc(-c3ccccc3)nc2-c2ccccc2)cc1OCC | 139 to 140 °C |
| CN1Cc2cccc3c2c(cn3C)S1(=O)=O | 190 °C |
| Cc1c(C=C2CCc3cc4ccccc4n3C2=O)ncn1C(c1ccccc1)(c1ccccc1)c1ccccc1 | 214 to 217 °C |
| CC(C)[Si](C)(C)CCCSCCNC(=O)n1cc(F)c(=O)[nH]c1=O | 113 to 114 °C |
| CONC(=O)c1cnn(-c2ccccc2)c1Br | 194 to 197 °C |
| N#CNC(=N)CCCc1ccccc1Sc1ccccc1CCCC(=N)NC#N | 155 to 157 °C |
| CN(C)c1ccc(NC(=O)N(C[C@@H]2CCC[C@H](CN(CC(C)(C)C)C(=O)Nc3ccc(N(C)C)cc3)C2)CC(C)(C)C)cc1 | 171 to 173 °C |
| CN(C)c1ccc(C(=O)C(O)c2cccc(F)c2)cc1 (configuration not stated) | 147 to 149 °C |
| COC(=O)CC(Sc1cc(C(C)(C)C)c(O)c(C(C)(C)C)c1)C(=O)OC (configuration not stated) | 94 to 96 °C |
| O=c1c2c(Cc3ccc(OC(F)(F)F)cc3)n[nH]c2c2cccnc2n1-c1cccc(C(F)(F)F)c1 | 134 to 137 °C |
| CN(C)c1cccc(-n2cc(C(=O)NC(=N)N)c3cccnc32)c1 | 269 to 271 °C |
| CCCc1ccc(OCCc2c[nH]cn2)cc1 | 168 to 171 °C |
| NC(=O)CNC(=O)c1nccc(-c2cccc3cc(Cc4cccc(C(F)(F)F)c4)sc23)n1 | 241 to 242 °C |
| Cc1sc(-c2cccc(F)c2)nc1O | 162 to 163 °C |
| CC(Nc1nc(Oc2cccc3[nH]c(=O)c(N)nc23)cc(-c2ccc(C(F)(F)F)cc2)n1)c1ccc(F)cc1 (configuration not stated) | 434 °C |
| Cc1oc(-c2ccco2)nc1/C=C/c1ccc(/C=C/C=C/C=O)cc1 | 179 to 180 °C |
| CC(C)COC(=O)Nc1ccc(C2CCSCC2)cc1 | 126 to 128 °C |
| COC(=O)c1c(OC)nc2ccc(Cl)cc2c1-c1ccccc1Cl | 151 to 152 °C |
| CCOC(=O)C(Cc1ccccc1)NC(=O)COc1ccc(C2=NNC(=O)NC2)cc1Cl (configuration not stated) | 180 to 181 °C |

| Structure (SMILES) | melting point |
| --- | --- |
| Cc1cc(N2CCN(CC(=O)c3ccccc3)C2=O)sc1C(=O)NCc1cccnc1 | 174 to 176 °C |
| CC(C)n1c(=S)nc(-c2ccccc2)c2cc3c(cc21)OCO3 | 202 to 205 °C |
| CN1C(=O)CCC1(O)c1ccc(Cl)c(S(=O)(=O)Cl)c1 (configuration not stated) | 112 to 114 °C |
| CC1CCCC(NC(CCc2ccccc2)C(=O)O)C(=O)N1CC(=O)O (configuration not stated) | 215 to 217 °C |
| CN(C=O)CNC(=O)c1snc(Cl)c1Cl | 87 to 88 °C |
| CC(C)(C)OC(=O)NCCNC(=O)c1cc(Cl)cc(Cl)n1 | 126 to 127 °C |
| O=C1CC2(CC=CC2)CC(=O)O1 | 64 to 65 °C |
| CC(C)(O)CCOc1c(-c2ccc(S(C)(=O)=O)cc2)cnn(-c2ccc(F)c(F)c2)c1=O | 131 to 133 °C |
| O=C1NC(c2ccccc2)C(C(=O)NCCO[N+](=O)[O-])O1 (configuration not stated) | 122 to 124 °C |
| O=C(Nc1ccc(C(=O)N2Cc3cccnc3Nc3ccccc32)c(Cl)c1)c1ccccc1-c1ccccc1 | 147 to 165 °C |
| COc1cc2ncc(F)c(Cl)c2cc1OC | 159 to 160 °C |
| COc1ccc([C@H]2CCCN2[S@@](=O)C(C)(C)C)cc1 | 61 to 63 °C |
| CNCC1(c2cccc(C(F)(F)F)c2)CCN(C(=O)CN2CCN(c3cnccn3)CC2)CC1 | 137 to 139 °C |
| COc1cc(-c2cnc3[nH]cc(C(=O)NC4CCCOC4)c3n2)cc(OC)c1OC (configuration not stated) | 191 to 192 °C |
| Cc1cccc(-c2sc(N)nc2-c2ccnc(-c3ccc(OCC(=O)N4CCOCC4)cc3)c2)n1 | 172 °C |
| O=C1OC(CO)CN2C1=Cc1ccsc1S2(=O)=O (configuration not stated) | 210 to 212 °C |
| Cn1nc(-c2ncc(Cl)cc2F)c(N)c1OC(F)F | 92 to 94 °C |
| CCc1c(-c2ccc(O)cc2)c2cc(C(C)=O)c3ccc(CO)c1n32 | 194 to 195 °C |
| O=C(c1cc(-c2ccc(F)cc2)c(-c2ccc(F)cc2)[nH]1)C(F)(F)F | 211 to 212 °C |
| O=C(O)c1cccc(OCc2ccc(Cl)c(Cl)c2)c1 | 173 to 174 °C |
| Cc1noc(NS(=O)(=O)c2ccc(-c3ccccc3)cc2)c1C | 154 to 155 °C |
| COc1ccncc1Nc1nc(N2CCOCC2)nc(-n2c(C(F)F)nc3ccccc32)n1 | 161 to 163 °C |
| COc1ccc(C(=O)C(CCC(C)=O)c2ccc(OC)cc2)cc1 (configuration not stated) | 62 to 65 °C |
| CCCC(=O)Oc1ccc(S(=O)(=O)CS(N)(=O)=O)cc1 | 160 to 161 °C |
